US7034005B2, “Use of agent for suppressing infection and proliferation of human immunodeficiency syndrome virus” (The Kitasato Institute, priority 2002, dated 2006)

Tests used:
[1] = tested on: HIV-1BAL strain infected M-MΦ; experiment: Cytopathy (MGC formation) of HIV-1 infected M-MΦ; type: cell-based, human; conditions: 30 μM, HIV-1BAL (FIG. 17)
Protocol: Formation of cell cluster and cell fusion was observed from the 2nd day of the incubation only in virus producing M-MΦ and formation of multinucleatic giant cells were recognized from the culture day 4–7 [refer to FIG. 2(A)]. On the other hand, in GM-MΦ without generation of virus, nomorphological changes were observed [refer to FIG. 2(B)].
M-MΦ was subjected to contact infection with HIV-1BAL strain for 2 hours, added 30 μM of EM, EM201, EM202, EM703 or CAM, incubated and observed the cell morphology.

[2] = tested on: p38MAPK; experiment: Tyrosine phosphorylation (activation) of p38MAPK in HIV-1 infected M-MΦ by Western blotting; type: cell-based, human; conditions: 30 μM, day 2 of culture, HIV-1BAL infected M-MΦ, compared with DMSO (FIG. 19(A))
Protocol: (§1) P38MAPK and ERK1/2 activation were determined using P38MAPK antibody, anti-ERK1/2 antibody, anti-tyrosine phosphorylation P38MAPK antibody and anti-tyrosine phosphorylation ERK1/2 antibody (New England Biolabs, Inc. U.S.), and phosphorylation reaction of these molecules was determined by Western blotting.
Thirty μM of EM, EM201, EM202, EM703 or CAM were added to M-MΦ infected with HIV-1BAL strain, tyrosine phosphorylation of p38MAPK was detected on day 2 of the culture by Western blotting. […] In any groups, total amount of p38MAPK (total sum of phosphorylated and non-phosphorylated p38MARK) was equal.

[3] = tested on: HIV-1BAL strain in GM type macrophage (GM-MΦ) derived from human monocytes; experiment: Proliferation of HIV-1 in GM-MΦ: p24 protein in culture supernatant by sandwich ELISA; type: cell-based; conditions: 30 μM, HIV-1BAL, all assay points up to 14 days, similar to DMSO control (FIG. 14)
Protocol: (§2) Macrophages derived from monocytes were prepared by culturing the recovered monocytes in the presence of M-CSF (macrophage colony-stimulating factor) (10^4 U/ml, provided by Morinaga Milk Co.), granulocytes and granulocyte-macrophage colony-stimulating factor, GM-CSF) (500 U/ml, provided by Japan Scheling Plough Co., Osaka, or purchased from R & S Genzyme-TECHNE Inc.) with RPMI1640 medium added with FCS10% (Nissui Seiyaku Co., Tokyo) for 7–8 days.
(§3) The macrophage prepared by differential induction of M-CSF from human monocytes is designated as M type macrophage (M type MΦ or M-MΦ) and the macrophage prepared by differential induction of GM-CSF from human monocytes is designated as GM type macrophage (GM type MΦ or GM-MΦ) Further, alveolar macrophage (alveolar MΦ or A-MΦ) was prepared as follows. Cells in the alveolar lavage liquid obtained from the alveolar lavage of healthy volunteers were recovered, suspended and adhered to plastics, then the non-adhered cells were washed out and the remained adhered cells were designated as the alveolar MΦ.
(§4) Infection of HIV-1 to macrophage was performed as follows. Macrophage directed viral strains, HIV-1JR-FL and HIV-1BAL, were infected for 2 hours in contact with M-MΦ, GM-MΦ and A-MΦ (adjusted to 2.5×10^5/well, Flacon No3043: Becton Dickinson Labware, Inc. U.S.)at low concentration (p24 antigen titer 50 ng/ml, TCID50=3000/ml virus to final concentration at 100 pg/ml), and non-adsorbed virus to the macrophage was washed out, and cultured with adding fresh medium. In case of the medium with M-MΦ, M-CSF was added (10^4 U/ml), and that of the medium with GM-MΦ, GM-CSF was added (500 U/ml).
(§5) Proliferation of virus was examined with the released viral particles in the culture supernatant after the infection by the sandwich ELISA using two types of anti-p24 antibody (Nu24 and 10B5^13). The following JAM62 and JAM65 were used as LTR (HIV long terminal repeat)-gap gene primer. The following JAM63 and JAM 64 were used as the internal primer for the nested PCR. • JAM62: • 5′-[…]-3′ (SEQ ID NO: 1) • JAM65: • 5′-[…]-3′ (SEQ ID NO: 2) • JAM63: • 5′-GTGTOACTCTGGTAACTAGAGATCC-3′ (SEQ ID NO: 3) • JAM64: • 5′-[…]-3′ (SEQ ID NO: 4) (1-4) Assay of Expression of Tyrosine Kinase Hck Protein and Transcription Factor C/EBPβ Protein
(§6) In order to show growth suppression effect of the present invention, among macrolide derivatives, EM, EM201, EM202, EM703, CAM, EM722, EM730, EM732, EM736, EM734, EM735, EM747, EM748, EM743, EM746, EM750 or EM751 was dissolved in DMSO with each 100 mM concentration, and used in dilution with the medium thereafter. A control group was M-MΦ treated only with DMSO used for dissolving macrolide derivatives.
(§7) M-MΦ and GM-M Φ were subjected to contact infection with HIV-1BAL strain for 2 hours, added 30 μM of EM, EM201, EM202, EM703, CAM,EM722, EM730, EM732, EM736, EM734, EM735, EM747, EM748, EM743, EM746, EM750 or EM751, incubated for 14 days and amount of p24 protein in the cultured supernatant was assayed in the time-dependent manner.

[4] = tested on: ERK1/2; experiment: Tyrosine phosphorylation (activation) of ERK1/2 in HIV-1 infected M-MΦ by Western blotting; type: cell-based, human; conditions: 30 μM, HIV-1BAL infected M-MΦ, compared with DMSO (FIG. 19(B))
Protocol: as §1
In any groups, total amount of ERK1/2 (total sum of phosphorylated and non-phosphorylated p38MARK) was equal [refer to FIG. 19(B)].

[5] = tested on: tyrosine kinase Hck protein; experiment: Expression of tyrosine kinase Hck protein in M-MΦ by Western blotting; type: cell-based, human; conditions: for expression of tyrosine kinase Hck protein in HIV-1 infected M-MΦ: 30 μM, compared with DMSO control (FIG. 18); for expression of tyrosine kinase Hck protein in HIV-1 infected M-MΦ / expression of tyrosine kinase Hck protein in oligonucleotide pretreated M-MΦ after infection: day 2 after HIV-1BAL infection; for expression of tyrosine kinase Hck protein in oligonucleotide treated M-MΦ before infection: probe 2 μM for 24 hours, further 24 hours incubation, compared with lipofectin control (L) (FIG. 9)
Source text: Expression of tyrosine kinase Hck protein and transcription factor C/EBPβ protein in macrophage was examined after solubilizing the macrophage in SDS-PAGE sample buffer, performing 10% SDS-polyacrylamide electrophoresis, transferring the protein on the gel to immobilon P membrane (Millipore Inc. U.S.) and checking antibodies against these proteins by Western blotting. Antibody to tyrosine kinase Hck protein (N-30) and antibody to C/EBPβ (C-19) were purchased from Santacluse Inc. (U.S.). Western blotting was detected by Amersham ELC Regent (Amersham International plc, Buckinghamshire, UK). Strength of bands was expressed by PSL (photostimulating luminescence) value (A/mm^2).
These probes were dissolved in the serum free RPMI1640 medium, in which lipofectin (Life Technology Inc., U.S.) was dissolved at 5 μM concentration, at room temperature for 30 minutes, added with RPMI1640 medium, which contains 10% FCS, to the macrophage (final concentration 2 μM) and incubated at 37° C. for 24 hours. Thereafter, cells were washed with the medium, added the RPMI1640 medium containing 10% FCS without oligonucleotide, further cultured for 24 hours, and then infected with HIV-1.
Consequently, M-MΦ was subjected to contact infection with HIV-1BAL strain for 2 hours, added 30 μM of EM, EM201, EM202, EM703 or CAM, incubated and expression of tyrosine kinase Hck protein was observed on day 2 after the infection by Western blotting.

[6] = tested on: HIV-1BAL strain in M type macrophage (M-MΦ) derived from human monocytes; experiment: Proliferation of HIV-1 in M-MΦ: p24 protein in culture supernatant by sandwich ELISA; type: cell-based; conditions: for suppression of viral generation (p24 in culture supernatant) in M-MΦ: 30 μM, HIV-1BAL, 14 days of culture, compared with DMSO control (FIG. 13); for viral proliferation at 300 μM in M-MΦ: also observed in DMSO control, ascribed to cytotoxicity of DMSO; for concentration dependence of suppressive action on HIV-1BAL in M-MΦ: various concentrations (FIG. 16); for p24 protein in culture supernatant of oligonucleotide pretreated M-MΦ: day 4, 7 and 10 after HIV-1BAL infection, compared with lipofectin control (L) (FIG. 10)
Protocol: as §2, §3, §4, §5, §6, §7

Row | Compound | cytopathic effect (MGC formation) in HIV-1 infected M-MΦ [1] | tyrosine phosphorylation of p38MAPK [2] | viral generation in GM-MΦ [3] | tyrosine phosphorylation of ERK1/2 [4] | expression of tyrosine kinase Hck protein in HIV-1 infected M-MΦ [5] | proliferation of virus in M-MΦ at 3 μM ([6]; 3 μM) | suppression of viral generation (p24 in culture supernatant) in M-MΦ [6] | viral proliferation at 300 μM in M-MΦ [6] | concentration dependence of suppressive action on HIV-1BAL in M-MΦ [6] | expression of tyrosine kinase Hck protein in oligonucleotide pretreated M-MΦ after infection [5] | expression of tyrosine kinase Hck protein in oligonucleotide treated M-MΦ before infection [5] | p24 protein in culture supernatant of oligonucleotide pretreated M-MΦ [6]
1 | 11-(1′-hydroxypropyl)-3-[2,6-dideoxy-3-C-methyl-α-L-ribo-hexopyranosyl]oxy]-5-[(3,4,6-trideoxy-3-(dimethylamino)-β-D-xylo-hexopyranosyl)oxy]-2,4,6,8,11,14-hexamethyl-10,13,15-tri-oxatricyclo[9.2.1.1.^9.6]-pentadecane-1-one [EM201] | no cytopathic effect such as MCG formation was observed | significantly decreased | almost no viral generation was recognized | promotion of tyrosine phosphorylation of ERK1/2 was recognized | strongly suppressed | inhibited almost completely the proliferation of virus | almost no p24 was detected | viral proliferation at 300 μM was observed | concentration dependent manner | – | – | –
2 | CC[C@H]1OC(=O)[C@H](C)[C@@H](O[C@H]2C[C@@](C)(OC)[C@@H](O)[C@H](C)O2)[C@H](C)[C@@H](O[C@@H]2O[C@H](C)C[C@H](N(C)C)[C@H]2O)[C@](C)(OC)C[C@@H](C)C(=O)[C@H](C)[C@@H](O)[C@]1(C)O [CAM, Oxacyclotetradecane-2,10-dione,4-[(2,6-dideoxy-3-O-methyl-α-L-ribo-hexopyranosyl)oxy]-14-ethyl-12,13-dihydroxy-7-methoxy-3,5,7,9,11,13-hexamethyl-6-[[3,4,6-trideoxy-3-(dimethylamino)-β-D-xylo-hexopyranosyl]oxy], reference compound] | formation of MGC was slightly recognized | recognized to decrease, though not so strong | almost no viral generation was recognized | weakly recognized as same in the control group | the suppression of tyrosine kinase Hck protein was observed, though not so strong | – | approximately ½ | viral proliferation at 300 μM was observed | exhibited suppression of viral production depending upon drug concentration | – | – | –
3 | CC[C@H]1OC(=O)[C@H](C)[C@@H](O[C@H]2C[C@@](C)(OC)[C@@H](O)[C@H](C)O2)[C@H](C)[C@@H](O[C@@H]2O[C@H](C)C[C@H](N(C)C)[C@H]2O)[C@@]2(C)C[C@@H](C)[C@@]3(O[C@@]1(C)[C@H](O)[C@H]3C)O2 [EM202, 6,9,12-Anhydroerythromycin A] | formation of MGC was slightly recognized | recognized to decrease, though not so strong | almost no viral generation was recognized | weakly recognized as same in the control group | the suppression of tyrosine kinase Hck protein was observed, though not so strong | – | suppression of viral generation was recognized, though not so strong | viral proliferation at 300 μM was observed | exhibited suppression of viral production depending upon drug concentration | – | – | –
4 | Hck-NS: Phosphorothioate-modified non-sense oligonucleotide probe, 5′-CCATATTTCCCGCTCOCGTG-3′ (SEQ ID NO: 7) (CCATATTTCCCGCTCGCGTG; all phosphorothioate, sugars by position and methylation of C not given here) | – | – | – | – | – | – | – | – | – | no suppression of expression of tyrosine kinase Hck protein was recognized | suppression of expression of tyrosine kinase Hck protein was recognized | time-dependent increase in p24 protein was recognized
5 | Hck-S: Phosphorothioate-modified sense oligonucleotide probe of Hck, 5′-GCCAGOATOGGGTCGATCAA-3′ (SEQ ID NO: 6) | – | – | – | – | – | – | – | – | – | no suppression of expression of tyrosine kinase Hck protein was recognized | suppression of expression of tyrosine kinase Hck protein was recognized | time-dependent increase in p24 protein was recognized
